Data: patent publication US20150080475A1, “Memantine Protects Inflammation-Related Degeneration of Dopamine Neurons Through Inhibition of Over-Activated Microglia and Release of Neurotrophic Factors From Astroglia” (priority 2009, published 2015)

Assays:
nitric oxide = test: Nitrite assay (Griess reagent) after LPS; format: cell-based; conditions: 24 and 48 h after LPS stimulation
Experimental: As an indicator of nitric oxide production, the amount of nitrite accumulated in culture supernatant was determined with a colorimetric assay using Griess reagent [1% sulfanilamide, 2.5% H3PO4, 0.1% N-(1-naphthyl)ethylenediamine dihydrochloride]. Briefly, 50 μL of Griess reagent and 50 μL of culture supernatant were incubated in the dark at room temperature for 10 min. After incubation, the absorbance at 540 nm was determined with the Spectra Max Plus microplate spectrophotometer. The sample nitrite concentration was determined from a sodium nitrite standard curve.
Neuron-glia cultures were pretreated for 30 min with MMT (3 μM) or vehicle before LPS stimulation. […] Production of superoxide (30 min after LPS) and iROS (2 h after LPS) was decreased by MMT treatment (FIGS. 6A and 6B). […] The production of PGE2 in cultures pretreated with 3 and 10 μM MMT decreased by 23% and 27% respectively (FIG. 6E).

GDNF [1] = test: Western blot of GDNF protein in astroglial cells; format: cell-based, rat; conditions: memantine 10 μM
Experimental: (§1) GDNF mediated memantine-induced neurotrophic effects. Rat primary astroglia were exposed to 10 μM memantine for various time points ranging from 0 minute to 24 h. (FIG. 5A) Total RNA was extracted. […] (FIG. 5B) The ratio of densitometry values of GDNF and β-actin was analyzed and normalized to 0 min value. (FIG. 5C) Total protein of astroglial cells was extracted. Western blot analyses were performed with the antibody to GDNF. GAPDH was used as loading control. (FIG. 5D) The ratio of densitometry values of GDNF and GAPDH was analyzed and normalized to 0 min value. Values were expressed as mean±S.E.M. of three independent experiments. *p<0.05, **p<0.01, ***p<0.001, Bonferroni t-test vs 0 min for FIG. 5B and FIG. 5D; (FIG. 5E) Neuron-glia cultures were treated with either control goat IgG (isotype Ab), or goat anti-GDNF, combined with memantine (10 μM) treatment. DA uptake capacity was measured 7 days later. Results were expressed as a percentage of the vehicle-treated control cultures and represented mean±S.E.M. of three independent experiments performed in triplicate. *p<0.05, **p<0.01, ***p<0.001, Bonferroni's test vs control; #p<0.05, Bonferroni t-test vs memantine treated cultures.
Mixed-glia cultures were first prepared from brains of 1-day-old Fisher 344 rat pups, as described previously. Briefly, mechanically dissociated brain cells (5×10^7) were seeded onto 150-cm^2 culture flasks in Dulbecco's modified Eagle's medium containing 10% heat-inactivated FBS, 2 mM L-glutamine, 1 mM sodium pyruvate, 100 μM non-essential amino acids, 50 U/ml penicillin and 50 μg/ml streptomycin. The cultures were maintained at 37° C. in a humidified atmosphere of 5% CO2 and 95% air, and medium was replenished 4 days after the initial seeding. Upon reaching confluence (usually 12-14 days later), microglia were detached from astrocytes by shaking the flasks at a speed of 180 r.p.m. for 5 h. Astrocytes were then detached with trypsin-ethylenediaminetetraacetic acid (EDTA) and seeded in the same culture medium. […]

HAPI = test: MTT cell viability of HAPI cells with LPS; format: cell-based; conditions: MMT 10 uM, LPS 100 ng/ml, 48 hrs
Experimental: HAPI was seeded with 1*10^4/well in 96-well plate. Twenty-four hours later, it was treated with vehicle, MMT (10 uM), and LPS 100 ng/ml for 48 hrs. After adding MTT, cell viability was measured (FIG. 8A) and morphology (FIG. 8B) was examined by contrast microscope. Values are mean±SEM of three independent experiments. *p<0.05, compared with LPS.

DA neurons = test: MPP+-induced reduction in DA uptake in neuron-enriched cultures; format: cell-based; conditions: MMT 1, 3, or 10 μM pre-treatment
Experimental: Mesencephalic neuron-glia cultures were seeded (5×10^5/well) in 24 well plates precoated with poly D-lysine. Thirty-six hours postseeding, 5-10 μM cytosine β-D-arabinofuranoside was added to the culture. After 2 days, the cytosine β-D-arabinofuranoside was removed and replaced with fresh media. Neuron-enriched cultures are 98% pure, as indicated by ICC staining with OX-42 and GFAP antibodies. Neuron-enriched cultures were treated 7 days post-seeding. For microglia add-back cultures, the microglia were plated on top of the neuron-enriched culture at 6 days postseeding, resulting in the addition of either 10% (500 μL of 1×10^5) or 20% (500 μL of 2×10^5) microglia. […]
Cells were incubated in Krebs-Ringer buffer (16 mM NaH2PO4, 1.2 mM MgSO4, 1.3 mM EDTA, […], for 21 min at 37° C. with 1 μM [^3H] DA. Nonspecific uptake was blocked for DA with 10 μM mazindole. After incubation, cells were washed three times with 1 mL/well of ice-cold Krebs-Ringer buffer. Cells were then lysed with 0.5 mL/well of 1 N NaOH and mixed with 15 mL of scintillation fluid. Radioactivity was measured on a scintillation counter, where specific [^3H] DA uptake was calculated by subtracting the mazindole.
To determine whether the neuroprotective effect of MMT was dependent on the presence of glial cells, the effects of MMT on the neuron-enriched cultures were determined. […]

GDNF [2] = test: RT-PCR of GDNF mRNA in astroglial cultures; format: cell-based, rat; conditions: memantine 10 μM, time-dependent, 0 min to 24 h
Experimental: as §1
Mixed-glia cultures were first prepared from brains of 1-day-old Fisher 344 rat pups, as described previously. […]

## CC12CC3CC(C)(C1)CC(N)(C3)C2.Cl [MMT, 1-amino-3,5-dimethyladamantane hydrochloride]
Nitric oxide
  release of NO (measured as nitrite): reduced
GDNF [1]; 6 h
  GDNF protein level vs vehicle-treated control: significantly increased level
GDNF [1]; 12 h
  GDNF protein level vs vehicle-treated control: peaked
GDNF [1]; 24 h
  GDNF protein level vs vehicle-treated control: still expressed
HAPI
  effect on apoptosis of activated microglia induced by LPS (MTT cell viability): lack of effect
DA neurons
  protection against MPP+-induced reduction in DA uptake: failed to protect
GDNF [2]
  GDNF mRNA levels: significant main effects
